Results: patent US20100047233A1, “TREATMENT OF POST-MENOPAUSAL AND POST-HYSTERECTOMY MEDIATED COGNITIVE DISORDERS” (priority 2006, published 2010)
“Also recorded” adds a separate entry of the source. Non-standard residues stand in square brackets, D forms with d. Residues, ends and D or L forms follow the SMILES beside them. dPhe(4-Cl) = N[C@H](Cc1ccc(Cl)cc1)C(=O)O; d2Nal = N[C@H](Cc1ccc2ccccc2c1)C(=O)O; dCit = NC(=O)NCCC[C@@H](N)C(=O)O; d3Pal = N[C@H](Cc1cccnc1)C(=O)O

Assays:
C57/B6 female mice [1] = assay: Morris Water Maze in ovariectomized mice (cetrorelix); assay type: in vivo
From the text: FIG. 13 are graphs illustrating Latency to enter NE quadrant and % Time spent in NE quadrant during the probe trial for animals treated with cetrorelix or saline and sham operated animals (SHAM).
FIG. 14 are plots illustrating the distance swam in NE quadrant during the trial for animals treated with cetrorelix or saline and sham operated animals.
We present preliminary data gathered from a pilot study and that focuses on the effects of cetrorelix on cognition in ovariectomized animals with or without estrogen replacement immediately after surgery. For this pilot 2 month old C57/B6 female mice were ovariectomized, as described above, and then treated with either 0.9% saline and the other half with cetrorelix. In addition we added a SHAM ovariectomized group that received saline and a placebo pallet (n=10). During the last two weeks of the study all animals have been tested for Morris Water Maze performance.
(§1) Additionally, to further determine the memory function and training success in the animals we measured the capacity of the animals to retain the information learned using a probe trial. In this regard, at the end of the last day of training we removed the platform and let the animals swim for 1 minute.

C57/B6 female mice [2] = assay: Morris Water Maze in ovariectomized mice (leuprolide acetate, estrogen); assay type: in vivo; settings: for OVX-associated cognitive decline, length of time taken to locate the invisible platform across days: OVX C57/B6 mice, Morris Water Maze, 3 months treatment
From the text: (Significance indicated by: *P+S vs E+S; #=P+S vs P+L; $=P+S vs SHAM; %=P+S vs E+L; at p<0.05).
For this pilot 2 month old C57/B6 female mice from Jackson Labs, were ovariectomized (n=40) them and either replaced them with 90-day time-release estrogen (n=20) or placebo pellets (Innovative research of America, F1) (n=18). […] In addition we added a SHAM ovariectomized group that received saline and a placebo pallet (n=10). During the last two weeks of the study all animals have been tested for Y-maze and Morris Water Maze performance.
As mentioned before, all mice also underwent MWM testing, a measurement of hippocampal function based on the capacity of the animal to find a hidden platform under water by remembering and using spatial cues in the environment.
as §1

C57/B6 female mice [3] = assay: Y-maze performance in ovariectomized mice; assay type: in vivo; settings: OVX mice; for Y-maze performance: leuprolide acetate 7.5 mg/kg for 3 months vs saline, improvement specific to placebo replaced group
Protocol: To measure spontaneous alternation behavior and exploratory activity, a hippocampal-associated task, we used a Y-maze [32 cm (long)×10 cm (wide) with 26-cm walls]. Tg-LHβ and LHRKO animals were tested as previously described (Joseph et al., 2003). Briefly, each animal (randomized and investigator-blinded) was placed in one of three arms of the Y-maze (alternating arms across animals in each group) and each arm entry was recorded for duration of 5 minutes. An alternation was defined as 3 entries in 3 different arms (i.e., 1, 2, 3 or 2, 3, 1 etc). % number of alternations was calculated as (total alternations/total number of entries−2)×100. The maze was cleaned with ethanol between each animal to minimize odor cues. […] In addition we added a SHAM ovariectomized group that received saline and a placebo pallet (n=10). During the last two weeks of the study all animals have been tested for Y-maze and Morris Water Maze performance.

Aβ [4] = assay: Aβ burden (% area stained) in hippocampus of Tg2576 mice; assay type: in vivo; settings: vs saline-treated animals
From the text: Scale bar, 200 μm. […] In this initial study we used aged animals to 1) circumvent the estrogen issue, since aged mice, like humans show estropause and 2) to examine the effects of LH ablation once the disease is well established.

Aβ [5] = settings: APP transgenic mice, earlier study; cited from earlier work
AD patients = settings: high doses, phase II clinical trial; cited from earlier work
serum LH = assay: Serum LH after leuprolide acetate treatment in mice; assay type: in vivo; settings: for serum LH: Tg2576 mice, vs saline
From the text: (§2) Inset: LHβ mRNA expression in mouse pituitary gland.

Tg2576 mice [6] = settings: APP transgenic mice, earlier study; cited from earlier work
LHβ mRNA = LHβ mRNA expression in mouse pituitary gland; assay type: in vivo; settings: saline versus 6 and 8 week leuprolide acetate treatment
From the text: as §2

Tg2576 mice [7] = assay: Y-maze performance in aged Tg2576 mice; assay type: in vivo; settings: aged (21 month old) Tg2576 female mice, 3 months, vs saline/placebo
Protocol: Figure illustrates the mean % alternations expressed as % change from baseline. To measure spontaneous alternation behavior and exploratory activity, a hippocampal-associated task, we used a Y-maze [32 cm (long)×10 cm (wide) with 26-cm walls]. Tg-LHβ and LHRKO animals were tested as previously described (Joseph et al., 2003). Briefly, each animal (randomized and investigator-blinded) was placed in one of three arms of the Y-maze (alternating arms across animals in each group) and each arm entry was recorded for duration of 5 minutes. An alternation was defined as 3 entries in 3 different arms (i.e., 1, 2, 3 or 2, 3, 1 etc). % number of alternations was calculated as (total alternations/total number of entries−2)×100. The maze was cleaned with ethanol between each animal to minimize odor cues. […] In this initial study we used aged animals to 1) circumvent the estrogen issue, since aged mice, like humans show estropause and 2) to examine the effects of LH ablation once the disease is well established.

[8] = platform removed, 1 minute swim, regardless of replacement regiment

Question: Which “OVX-dependent cognitive declines, Morris Water Maze” value (C57/B6 female mice [1]; OVX placebo-implanted mice, cetrorelix vs saline) does the source give for CC(=O)N[C@H](Cc1ccc2ccccc2c1)C(=O)N[C@H](Cc1ccc(Cl)cc1)C(=O)N[C@H](Cc1cccnc1)C(=O)N[C@@H](CO)C(=O)N[C@@H](Cc1ccc(O)cc1)C(=O)N[C@H](CCCNC(N)=O)C(=O)N[C@@H](CC(C)C)C(=O)N[C@@H](CCCNC(=N)N)C(=O)N1CCC[C@H]1C(=O)N[C@H](C)C(N)=O [cetrorelix] (Ac-[d2Nal][dPhe(4-Cl)][d3Pal]SY[dCit]LRP[dA]-NH2) here?
Answer: The value was “effective at improving OVX-dependent cognitive declines”.

Question: What about the “rate of learning in Morris Water Maze” value (C57/B6 female mice [1]; independent of replacement regiment, cetrorelix vs saline) of the same compound?
Answer: The value was “learned at a faster rate”.

Question: What about the “distance swam in NE quadrant, probe trial” value (C57/B6 female mice [1]; platform removed, 1 minute swim) of the same compound?
Answer: Its value is “swam longer distances”.

Question: For estrogen, which “OVX-associated cognitive decline, length of time taken to locate the invisible platform across days” value (C57/B6 female mice [2]) is on record?
Answer: Its value is “rescued”.

Question: And the “Y-maze performance, estrogen-replaced vs placebo replaced” value (C57/B6 female mice [3]; saline-treated, 90-day time-release estrogen vs placebo pellets, p=0.07)?
Answer: The value was “strong trend”.

Question: Which results are given for CCNC(=O)[C@@H]1CCCN1C(=O)[C@H](CCCNC(=N)N)NC(=O)[C@H](CC(C)C)NC(=O)[C@@H](CC(C)C)NC(=O)[C@H](Cc1ccc(O)cc1)NC(=O)[C@H](CO)NC(=O)[C@H](Cc1c[nH]c2ccccc12)NC(=O)[C@H](Cc1c[nH]cn1)NC(=O)[C@@H]1CCC(=O)N1 [leuprolide acetate]?
Answer: Aβ burden / plaque load (% area stained in the entire hippocampus) (Aβ [4]): significantly lower; also recorded: decreases Aβ plaque load; OVX-associated cognitive decline, length of time taken to locate the invisible platform across days (C57/B6 female mice [2]): as effective as estrogen in rescuing OVX-associated cognition decline; rate of learning in Morris Water Maze (C57/B6 female mice [2]; independent of replacement regiment, vs saline): learned at a faster rate; distance swam in NE quadrant, probe trial (C57/B6 female mice [2]; [8]): swam longer distances; latency to enter NE quadrant, probe trial (C57/B6 female mice [2]; [8]): entered that quadrant earlier; latency to enter platform location, probe trial (C57/B6 female mice [2]; [8]): crossed the invisible platform region more earlier; number of platform crossings, probe trial (C57/B6 female mice [2]; [8]): crossed it more times; amyloid-β load in the hippocampus (Aβ [5]): decreases amyloid-β load; cognitive impairment and activities of daily living (AD patients): stabilization in cognitive impairment and activities of daily living; serum LH (serum LH): significant decline in serum LH; serum LH (serum LH; listed as Leuprolide acetate): significantly reduces serum LH; time course of serum LH (serum LH; up to 8 weeks following treatment): classical LH modulation pattern by GnRH agonists; Y-maze performance (C57/B6 female mice [3]): significantly improved Y-maze performance; Y-maze performance (C57/B6 female mice [3]; listed as leuprolide): effective at improving OVX-dependent cognitive declines; Y-maze performance (Tg2576 mice [6]): improves Y-maze performance; LHβ mRNA expression in the pituitary (LHβ mRNA): clear decrease in the expression of LHβ mRNA; Y-maze cognitive performance (% alternations, % change from baseline) (Tg2576 mice [7]): significantly attenuates cognitive decline
